Results as given in patent US9376442B2, “Methylpyrrolopyrimidinecarboxamides” (Takeda GmbH, priority 2009, dated 2016).

Target: T1, PDE5A1 (Homo sapiens, UniProt O76074)
T1 construct: from tissue; host or cells: human platelets from fresh donor blood (10,000 x g supernatant of sonicated lysate)
Experiment: Inhibition of type 5 phosphodiesterase (PDE5) activity, modified SPA test with human platelet lysate
Type: biochemical
Details: 0.5 μM cGMP, read-out: PDE5A1 inhibitory values [measured as −log IC50 (mol/l)] (converted)
Description: Method for Measuring Inhibition of the Type 5 Phosphodiesterase (PDE5) Activity:
As a source for human PDE5, platelets are used. For that purpose, 150 ml fresh blood from human donors anticoagulated with citrate [final concentration 0.3% (w/v)] is centrifuged at 200 g for 10 min to obtain the so-called platelet-rich-plasma (PRP) as a supernatant. 1/10 volume of ACD solution (85 mM Na3-citrate, 111 mM D-glucose, 71 mM citric acid, pH 4.4) is added to 9/10 volume of PRP. After centrifugation (1,400 g, 10 min) the cell pellet is resuspended in 3 ml homogenization buffer (NaCl 140 mM, KCl 3.8 mM, EGTA (ethylene glycol tetraacetic acid) 1 mM, MgCl2 1 mM, Tris-HCl 20 mM, beta-mercaptoethanol 1 mM, pH 8.2) plus protease-inhibitor mix giving rise to the final concentrations of 0.5 mM Pefablock (Roche), 10 μM Leupeptin, 5 μM Trypsininhibitor, 2 mM Benzamidin and 10 μM Pepstatin A. The suspension is sonified and thereafter centrifuged for 15 min at 10,000 g. The resulting supernatant (platelet lysate) is used for enzymatic testings.
PDE5A1 activity is inhibited by the compounds of the present subject matter in a modified SPA (scintillation proximity assay) test, supplied by Amersham Biosciences (see procedural instructions “phosphodiesterase [3H]cAMP SPA enzyme assay, code TRKQ 7090”), carried out in 96-well microtitre plates (MTP's). The test volume is 100 μl and contains 20 mM Tris buffer (pH 7.4), 0.1 mg of BSA (bovine serum albumin)/ml, 5 mM Mg^2+, 1 μM motapizone, 10 nM PDE2 inhibitor 2-(3,4-dimethoxybenzyl)-7-[(1R,2R)-2-hydroxy-1-(2-phenylethyl)propyl]-5-methylimidazo[5,1-f][1,2,4]triazin-4(3H)-one, 0.5 μM cGMP (cyclic guanosine monophosphate) (including about 50,000 cpm of [3H]cGMP as a tracer), 1 μl of the respective compound dilution in dimethylsulfoxide (DMSO) and sufficient PDE5-containing platelet lysat (10,000×g supernatant, see above) to ensure that 10-20 wt % of the cGMP is converted under the said experimental conditions. […] After a preincubation of 5 min at 37° C., the reaction is started by adding the substrate (cGMP) and the assay is incubated for a further 15 min; after that, it is stopped by adding SPA beads (50 μl). In accordance with the manufacturer's instructions, the SPA beads had previously been resuspended in water, but are then diluted 1:3 (v/v) in water; the diluted solution also contains 3 mM […] (IBMX) to ensure a complete PDE activity stop. After the beads have been sedimented (>30 min), the MTP's are analyzed in commercially available luminescence detection devices. The corresponding IC50 values of the compounds for the inhibition of PDE activity are determined from the concentration-effect curves by means of non-linear regression.

| Compound | IC50 [nM] |
| --- | --- |
| CCC(=O)N1CC[C@@H](NC(=O)c2c(C)[nH]c3c(-c4ccc(OC)cc4OCC4CC4)ncnc23)C1 [Example E61, 4-[2-(Cyclopropylmethoxy)-4-methoxyphenyl]-6-methyl-N-[(3R)-1-propionylpyrrolidin-3-yl]-5H-pyrrolo[3,2-d]pyrimidine-7-carboxamide] | < 1 |
| COCC(=O)N[C@H]1CC[C@@H](NC(=O)c2c(C)[nH]c3c(-c4cc(C)c(F)cc4OCC4CC4)ncnc23)CC1 [Example E127, 4-[2-(Cyclopropylmethoxy)-4-fluoro-5-methylphenyl]-N-{cis-4-[(methoxyacetyl)amino]cyclohexyl}-6-methyl-5H-pyrrolo[3,2-d]pyrimidine-7-carboxamide] | < 1 |
| CCC(=O)N1C[C@@H](O)[C@H](NC(=O)c2c(C)[nH]c3c(-c4cc(OC)c(F)cc4OCC4CC4)ncnc23)C1 (relative stereo) [Example E184, 4-[2-(Cyclopropylmethoxy)-4-fluoro-5-methoxyphenyl]-N-[(3R*,4R*)-4-hydroxy-1-propionylpyrrolidin-3-yl]-6-methyl-5H-pyrrolo[3,2-d]pyrimidine-7-carboxamide] | < 1 |
| CCC(=O)N[C@H]1CC[C@H](NC(=O)c2c(C)[nH]c3c(-c4ccc(F)cc4OCC4CC4)ncnc23)CC1 [Example E23, 4-[2-(Cyclopropylmethoxy)-4-fluorophenyl]-6-methyl-N-[trans-4-(propionylamino)cyclohexyl]-5H-pyrrolo[3,2-d]pyrimidine-7-carboxamide] | < 1 |
| CCOC(=O)N1CCC(NC(=O)c2c(C)[nH]c3c(-c4cc(OC)c(F)cc4OCC4CC4)ncnc23)CC1 [Example E105, Ethyl 4-[({4-[2-(cyclopropylmethoxy)-4-fluoro-5-methoxyphenyl]-6-methyl-5H-pyrrolo[3,2-d]pyrimidin-7-yl}carbonyl)amino]piperidine-1-carboxylate] | < 1 |
| CCC(=O)N1CC[C@H](O)[C@@H](NC(=O)c2c(C)[nH]c3c(-c4cc(OC)c(F)cc4OCC4CC4)ncnc23)C1 (relative stereo) [Example E117, 4-[2-(Cyclopropylmethoxy)-4-fluoro-5-methoxyphenyl]-N-[(3S*,4S*)-4-hydroxy-1-propionylpiperidin-3-yl]-6-methyl-5H-pyrrolo[3,2-d]pyrimidine-7-carboxamide] | < 1 |
| COc1cc(OCC2CC2)c(-c2nc(C)nc3c(C(=O)NC4CCN(C(C)=O)CC4)c(C)[nH]c23)cc1F [Example E172, N-(1-Acetylpiperidin-4-yl)-4-[2-(cyclopropylmethoxy)-5-fluoro-4-methoxyphenyl]-2,6-dimethyl-5H-pyrrolo[3,2-d]pyrimidine-7-carboxamide] | < 1 |
| CCC(=O)N1CC[C@@H](NC(=O)c2c(C)[nH]c3c(-c4cc(F)ccc4OCC4CC4)ncnc23)C1 [Example E47, 4-[2-(Cyclopropylmethoxy)-5-fluorophenyl]-6-methyl-N-[(3R)-1-propanoylpyrrolidin-3-yl]-5H-pyrrolo[3,2-d]pyrimidine-7-carboxamide] | 1 to 10 |
| CCC(=O)N1C[C@@H](O)[C@H](NC(=O)c2c(C)[nH]c3c(-c4ccc(OC)cc4OCC4CC4)ncnc23)C1 (relative stereo) [Example E64, 4-[2-(Cyclopropylmethoxy)-4-methoxyphenyl]-N-[(3R*,4R*)-4-hydroxy-1-propionylpyrrolidin-3-yl]-6-methyl-5H-pyrrolo[3,2-d]pyrimidine-7-carboxamide] | < 1 |
| CCC(=O)N1C[C@@H](O)[C@H](NC(=O)c2c(C)[nH]c3c(-c4c(OCC5CC5)ccc5c4OCO5)ncnc23)C1 (relative stereo) [Example E17, 4-[5-(Cyclopropylmethoxy)-1,3-benzodioxol-4-yl]-N-[(3R*,4R*)-4-hydroxy-1-propionylpyrrolidin-3-yl]-6-methyl-5H-pyrrolo[3,2-d]pyrimidine-7-carboxamide] | < 1 |
| CCC(=O)N1CCC(NC(=O)c2c(C)[nH]c3c(-c4cc(OC)c(F)cc4OCC4CC4)nc(C)nc23)CC1 [Example E174, 4-[2-(Cyclopropylmethoxy)-4-fluoro-5-methoxyphenyl]-2,6-dimethyl-N-(1-propanoylpiperidin-4-yl)-5H-pyrrolo[3,2-d]pyrimidine-7-carboxamide] | < 1 |
| COCC(=O)N1CC[C@@H](NC(=O)c2c(C)[nH]c3c(-c4cc(OC)c(F)cc4OCC4CC4)ncnc23)C1 [Example E181, 4-[2-(Cyclopropylmethoxy)-4-fluoro-5-methoxyphenyl]-N-[(3R)-1-(methoxyacetyl)pyrrolidin-3-yl]-6-methyl-5H-pyrrolo[3,2-d]pyrimidine-7-carboxamide] | < 1 |
| COc1ccc(-c2ncnc3c(C(=O)N[C@@H]4CCN(C(C)=O)C4)c(C)[nH]c23)c(OCC2CC2)c1 [Example E60, N-[(3R)-1-acetylpyrrolidin-3-yl]-4-[2-(cyclopropylmethoxy)-4-methoxyphenyl]-6-methyl-5H-pyrrolo[3,2-d]pyrimidine-7-carboxamide] | < 1 |

More lines, now with the values ahead:

| IC50 [nM] | Compound |
| --- | --- |
| < 1 | COc1cc(-c2ncnc3c(C(=O)N[C@@H]4CCN(C(=O)CO)C[C@H]4O)c(C)[nH]c23)c(OCC2CC2)cc1F (relative stereo) [Example F71, 4-[2-(Cyclopropylmethoxy)-4-fluoro-5-methoxyphenyl]-N-[(3R*,4R*)-1-glycoloyl-3-hydroxypiperidin-4-yl]-6-methyl-5H-pyrrolo[3,2-d]pyrimidine-7-carboxamide] |
| < 1 | COc1ccc(-c2ncnc3c(C(=O)N[C@@H]4CN(C(=O)CO)C[C@H]4O)c(C)[nH]c23)c(OCC2CC2)c1 (relative stereo) [Example F39, 4-[2-(Cyclopropylmethoxy)-4-methoxyphenyl]-N-[(3R*,4R*)-1-glycoloyl-4-hydroxypyrrolidin-3-yl]-6-methyl-5H-pyrrolo[3,2-d]pyrimidine-7-carboxamide] |
| 1 to 10 | CCOc1ccc(F)cc1-c1ncnc2c(C(=O)NC3CCN(C(=O)[C@H](C)O)CC3)c(C)[nH]c12 [Example F33, 4-(2-Ethoxy-5-fluorophenyl)-N-{1-[(2S)-2-hydroxypropanoyl]piperidin-4-yl}-6-methyl-5H-pyrrolo[3,2-d]pyrimidine-7-carboxamide] |
| < 1 | Cc1[nH]c2c(-c3ccc(F)cc3OCC3CC3)ncnc2c1C(=O)N[C@@H]1CCN(C(=O)[C@H](C)O)C1 [Example F18, 4-[2-(cyclopropylmethoxy)-4-fluorophenyl]-N-{(3R)-1-[(2S)-2-hydroxypropanoyl]pyrrolidin-3-yl}-6-methyl-5H-pyrrolo[3,2-d]pyrimidine-7-carboxamide] |
| < 1 | Cc1cc(-c2ncnc3c(C(=O)NC4CCN(C(=O)[C@H](C)O)CC4)c(C)[nH]c23)c(OCC2CC2)cc1F [Example F76, 4-[2-(Cyclopropylmethoxy)-4-fluoro-5-methylphenyl]-N-{1-[(2S)-2-hydroxypropanoyl]piperidin-4-yl}-6-methyl-5H-pyrrolo[3,2-d]pyrimidine-7-carboxamide] |
| < 1 | COc1cc(-c2ncnc3c(C(=O)N[C@H]4CC[C@H](NC(=O)[C@H](C)O)CC4)c(C)[nH]c23)c(OCC2CC2)cc1F [Example F68, 4-[2-(Cyclopropylmethoxy)-4-fluoro-5-methoxyphenyl]-N-(trans-4-{[(2S)-2-hydroxypropanoyl]amino}cyclohexyl)-6-methyl-5H-pyrrolo[3,2-d]pyrimidine-7-carboxamide] |
| 1 to 10 | Cc1[nH]c2c(-c3cc(F)ccc3OCC3CC3)ncnc2c1C(=O)N[C@@H]1CCN(C(=O)[C@H](C)O)C1 [Example F29, 4-[2-(Cyclopropylmethoxy)-5-fluorophenyl]-N-{(3R)-1-[(2S)-2-hydroxypropanoyl]pyrrolidin-3-yl}-6-methyl-5H-pyrrolo[3,2-d]pyrimidine-7-carboxamide] |
| < 1 | COc1ccc(OCC2CC2)c(-c2ncnc3c(C(=O)N[C@@H]4CCN(C(=O)CO)C[C@H]4O)c(C)[nH]c23)c1 (relative stereo) [Example F49, 4-[2-(Cyclopropylmethoxy)-5-methoxyphenyl]-N-[(3R*,4R*)-3-hydroxy-1-(hydroxyacetyl)piperidin-4-yl]-6-methyl-5H-pyrrolo[3,2-d]pyrimidine-7-carboxamide] |
